According to patent EP1555944B1, “PACKAGED ANTIMICROBIAL MEDICAL DEVICE AND METHOD OF PREPARING SAME” (ETHICON, INC., priority 2002, dated 2004):

How the values were obtained:
S. aureus = conditions: suitable growth medium; cited from earlier work
[1] = Triclosan distribution between suture and package components after sterilization; type: physicochemical; conditions: size 5-0 suture, 2% triclosan coating composition, about 23.2 µg before sterilization
Method: The coated sutures each were placed in a package as described herein above including a containment component, i.e., a tray, for holding the suture and a paper component for covering the suture in the tray. The suture in the containment component and packaging were sterilized as described herein above. After sterilization, it was determined that that suture contained about 5.5 µg triclosan, the tray about 0.2 µg triclosan, the paper component about 2.3 µg triclosan, and the package heat seal coating about 1.5 µg triclosan. Triclosan not recovered after sterilization was about 13.7 µg triclosan. Fig. 1 indicates triclosan transfer from the antimicrobial suture to the tray of the package as a function of time at 55°C.

Oc1cc(Cl)ccc1Oc1ccc(Cl)cc1Cl [2,4,4'-trichloro-2'-hydroxydiphenyl ether]
minimum inhibitory concentration (MIC) (S. aureus): 0.01 ppm | Triclosan not recovered after sterilization [1]: about 13.7 µg | triclosan on package heat seal coating after sterilization [1]: about 1.5 µg | triclosan on paper component after sterilization [1]: about 2.3 µg | triclosan on suture after sterilization [1]: about 5.5 µg | triclosan on tray after sterilization [1]: about 0.2 µg
